Measured values: US20250236616A1, “IMMUNOMODULATING AZALIDES” (Zoetis Services LLC, priority 2021, published 2025)

Key:
TNF-α = assay: Whole bovine blood assay, LPS-induced TNF-α; format: cell-based; settings: fresh whole bovine blood, LPS stimulant
Method in brief: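 Fresh heparinized bovine whole blood was preincubated with compound 4 h at 37 °C, then stimulated with LPS (final 1 μg/mL) for 18 h at 37 °C. Plasma TNF-α was quantified by MSD U-Plex chemiluminescent immunoassay, normalized to total protein (BCA), and IC50 taken for LPS-induced TNF-α inhibition.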

IL-1β = assay: Whole bovine blood assay, LPS-induced IL-1β (inhibition / overstimulation); format: cell-based; settings: drug concentration giving overstimulation (OS) of LPS-induced IL-1β
Procedure: Whole Blood Assay-Fresh whole bovine blood samples were collected into heparinized vacutainer tubes. Assay plates were prepared with 25 μL of drug diluted in PBS at varying concentration in 96 round bottom wells, then 225 μL of blood was added and plates incubated at 37° C. for 4 hours. Cells were stimulated with LPS (or PBS for controls) by adding 25 μL to the plates at a final concentration of 1 μg/mL and incubated at 37° C. for 18 hours. To collect plasma, plates were centrifuged at 2,000×g for 10 minutes and 100 μL of supernatant was transferred to a 96 well polypropylene plate that was sealed and stored at −80° C. Samples were assayed for cytokines using the Meso Scale Discovery (MSD) platform (described below). This same MSD platform was used to assess cytokines in the plasma collected directly from drug treated animals.
Cytokine Detection—An MSD U-Plex cytokine assay was developed following the MSD U-Plex protocol guide and included biotinylated capture antibodies against: bovine Interleukin (IL)-1β (Biorad), bovine IL-6 (R&D Systems) and bovine tumor necrosis factor (TNF)-α (R&D Systems). The anti-IL-1β antibody was biotinylated using EZ-Link Sulfo-NHS-Biotin (Thermo Scientific) at a challenge ratio of 1:20 according to manufacturer instructions. Assay calibrators (Kingfisher) were diluted to a concentration of […] in control lithium heparin plasma, followed by 4-fold serial dilutions into plasma. The detection antibodies were sulfo-tagged following the MSD quick guide conjugation protocol using a challenge ratio of 1:20. Antibodies were used at the following concentrations: anti-IL-1β at 1 μg/mL, anti-IL-6 at 1 μg/mL and anti-TNF-α at 0.5 μg/mL. Cytokines were quantified according to manufacturer's instructions using a chemiluminescent readout. In brief, 0.5 mL of all biotinylated antibodies were diluted to 10 μg/mL with Diluent 100 and paired to their respective linkers by adding 750 μL of supplied Linker solution and incubated for 30 minutes followed by addition of Stop solution for another 30 minutes. The linked antibodies were then diluted 10-fold into Stop solution. Plates were coated by adding 50 μL of antibody solutions per well and incubated covered and shaking for 1 hour at room temperature. Plates were washed three times with PBS/Tween20 prior to samples or standards being added at 30 μL per well and incubated as above. Plates were washed three times before detection antibodies were added along with 2% goat and rabbit serum to block and incubated same as above. Plates were washed a further three times before addition of 150 μL 2X Read buffer and read immediately on the SI6000 instrument (MSD). For soluble protein levels, a BCA protein kit (Thermofisher) was used. The cytokine concentrations (pg/mL) were normalized to the total protein levels for each sample. [Bassel et. al., BMC Veterinary Research (2020) 16:168]
Therefore, a fresh whole bovine blood assay was developed with LPS as a stimulant (TLR-4 agonist) and with IL-1β and TNF-α as the read-out. Compounds of the invention were evaluated against a positive control for their ability to inhibit LPS-induced IL-1β and TNF-α as an overall evaluation of relative potency and modulation of target pathways.
For M9, the top dose of 500 μM was not high enough to determine an overstimulation of IL-1 B which was recorded as not applicable (n/a). The enhanced response indicates increased concentration of IL-1β cytokine at the drug concentration indicated. This is generally observed when compounds are out of range (high concentration) and stimulate a cellular toxicity signal. Further data supporting this hypothesis includes murine studies using a P. multocida infection in mice.
TNFα is a cell signaling protein, cytokine, that plays a key role in both acute and chronic inflammation. […]

Structure (SMILES) | IC50 (TNF-α; top drug concentration 250 μM) [µM] | minimal effective concentration (IL-1β; top concentration 250 μM) [µM] | IC50 (TNF-α; dose of 500 μM (footnote ^)) [µM] | minimal effective concentration (IL-1β; dose of 500 μM (footnote ^)) [µM]
CC[C@H]1OC(=O)[C@H](C)[C@@H](O[C@H]2C[C@@](C)(OC)[C@](O)(CNCCCN(C)C)[C@H](C)O2)[C@H](C)[C@@H](O[C@@H]2O[C@H](C)C[C@H](N(C)S(=O)(=O)Nc3ccc(C(F)(F)F)cc3)[C@H]2O)[C@](C)(O)C[C@@H](C)CN[C@H](C)[C@@H](O)[C@]1(C)O [Example B-74] | 33 | 16 |  | 
CC[C@H]1OC(=O)[C@H](C)[C@@H](O)[C@H](C)[C@@H](O[C@@H]2O[C@H](C)C[C@H](N(C)S(=O)(=O)c3ccccc3)[C@H]2Oc2ccc(OC)cc2)[C@](C)(O)C[C@@H](C)CN(C)[C@H](C)[C@@H](O)[C@]1(C)O [Example A-1] | 22 | 16 |  | 
CC[C@H]1OC(=O)[C@H](C)[C@@H](O)[C@H](C)[C@@H](O[C@@H]2O[C@H](C)C[C@H](N(C)S(=O)(=O)c3ccccc3)[C@H]2Oc2ccc(F)c(C(F)(F)F)c2)[C@](C)(O)C[C@@H](C)CN(C)[C@H](C)[C@@H](O)[C@]1(C)O [Example A-2] | 28 | 40 |  | 
CC[C@H]1OC(=O)[C@H](C)[C@@H](O[C@H]2C[C@@](C)(OC)[C@](O)(CNCCOC(F)(F)F)[C@H](C)O2)[C@H](C)[C@@H](O[C@@H]2O[C@H](C)C[C@H](N(C)S(=O)(=O)Nc3ccc(C(F)(F)F)cc3)[C@H]2O)[C@](C)(O)C[C@@H](C)CN[C@H](C)[C@@H](O)[C@]1(C)O [Example B-129] | 10 | 2 |  | 
CC[C@H]1OC(=O)[C@H](C)[C@@H](O[C@H]2C[C@@](C)(OC)[C@](O)(CNCCCN3CCCC3=O)[C@H](C)O2)[C@H](C)[C@@H](O[C@@H]2O[C@H](C)C[C@H](N(C)S(=O)(=O)Nc3ccc(C(F)(F)F)cc3)[C@H]2O)[C@](C)(O)C[C@@H](C)CN[C@H](C)[C@@H](O)[C@]1(C)O [Example B-87] | 17 | 9 |  | 
CCCNC[C@]1(O)[C@H](C)O[C@@H](O[C@H]2[C@H](C)[C@@H](O[C@@H]3O[C@H](C)C[C@H](N(C)S(=O)(=O)c4ccc(OC)cc4)[C@H]3O)[C@](C)(O)C[C@@H](C)CN[C@H](C)[C@@H](O)[C@](C)(O)[C@@H](CC)OC(=O)[C@@H]2C)C[C@@]1(C)OC [Example B-18] |  |  | 15 | 32
CCCNC[C@]1(O)[C@H](C)O[C@@H](O[C@H]2[C@H](C)[C@@H](O[C@@H]3O[C@H](C)C[C@H](N(C)S(C)(=O)=O)[C@H]3O)[C@](C)(O)C[C@@H](C)CN[C@H](C)[C@@H](O)[C@](C)(O)[C@@H](CC)OC(=O)[C@@H]2C)C[C@@]1(C)OC [Example B-59] | 150 | 57 |  | 
CCCNC[C@]1(O)[C@H](C)O[C@@H](O[C@H]2[C@H](C)[C@@H](O[C@@H]3O[C@H](C)C[C@H](N(C)S(=O)(=O)c4ccc(C#N)cc4)[C@H]3O)[C@](C)(O)C[C@@H](C)CN[C@H](C)[C@@H](O)[C@](C)(O)[C@@H](CC)OC(=O)[C@@H]2C)C[C@@]1(C)OC [Example B-13] | > 250 | 100 |  | 
CCCNC[C@]1(O)[C@H](C)O[C@@H](O[C@H]2[C@H](C)[C@@H](O[C@@H]3O[C@H](C)C[C@H](N(C)S(=O)(=O)c4ccccc4)[C@H]3O)[C@](C)(O)C[C@@H](C)CN[C@H](C)[C@@H](O)[C@](C)(O)[C@@H](CC)OC(=O)[C@@H]2C)C[C@@]1(C)OC [Example B-7] | 25 | 40 |  | 
CCCNC[C@]1(O)[C@H](C)O[C@@H](O[C@H]2[C@H](C)[C@@H](O[C@@H]3O[C@H](C)C[C@H](N(C)S(=O)(=O)c4cn(C)cn4)[C@H]3O)[C@](C)(O)C[C@@H](C)CN[C@H](C)[C@@H](O)[C@](C)(O)[C@@H](CC)OC(=O)[C@@H]2C)C[C@@]1(C)OC [Example B-16] | > 250 | >250 |  | 
CCCNC[C@]1(O)[C@H](C)O[C@@H](O[C@H]2[C@H](C)[C@@H](O[C@@H]3O[C@H](C)C[C@H](N(C)S(=O)(=O)c4cnc5ccsc5c4)[C@H]3O)[C@](C)(O)C[C@@H](C)CN[C@H](C)[C@@H](O)[C@](C)(O)[C@@H](CC)OC(=O)[C@@H]2C)C[C@@]1(C)OC [Example B-9] | 55 | 40 |  | 
CC[C@H]1OC(=O)[C@H](C)[C@@H](O)[C@H](C)[C@@H](O[C@H]2O[C@@H](C)C[C@@H](N(C)S(=O)(=O)Nc3ccccc3)[C@@H]2Oc2ccccc2)[C@](C)(O)C[C@@H](C)CN[C@H](C)[C@@H](O)[C@]1(C)O [Example A-4] | 10 | 4 |  | 
CC[C@H]1OC(=O)[C@H](C)[C@@H](O[C@H]2C[C@@](C)(OC)[C@](O)(CNCCCN3CCCCC3)[C@H](C)O2)[C@H](C)[C@@H](O[C@@H]2O[C@H](C)C[C@H](N(C)S(=O)(=O)Nc3ccc(C(F)(F)F)cc3)[C@H]2O)[C@](C)(O)C[C@@H](C)CN[C@H](C)[C@@H](O)[C@]1(C)O [Example B-75] | 31 | >250 |  | 
CC[C@H]1OC(=O)[C@H](C)[C@@H](O[C@H]2C[C@@](C)(OC)[C@](O)(CNCCS(C)(=O)=O)[C@H](C)O2)[C@H](C)[C@@H](O[C@@H]2O[C@H](C)C[C@H](N(C)S(=O)(=O)c3ccc(C(F)(F)F)cc3)[C@H]2O)[C@](C)(O)C[C@@H](C)CN[C@H](C)[C@@H](O)[C@]1(C)O [Example B-126] | 68 | 11 |  | 
CCCNC[C@]1(O)[C@H](C)O[C@@H](O[C@H]2[C@H](C)[C@@H](O[C@@H]3O[C@H](C)C[C@H](N(C)S(=O)(=O)c4nccn4C)[C@H]3Oc3ccc(OC)cc3)[C@](C)(O)C[C@@H](C)CN[C@H](C)[C@@H](O)[C@](C)(O)[C@@H](CC)OC(=O)[C@@H]2C)C[C@@]1(C)OC [Example B-119] |  | 6 |  | 
CCCNC[C@]1(O)[C@H](C)O[C@@H](O[C@H]2[C@H](C)[C@@H](O[C@@H]3O[C@H](C)C[C@H](N(C)S(=O)(=O)c4ccc(F)nc4)[C@H]3O)[C@](C)(O)C[C@@H](C)CN[C@H](C)[C@@H](O)[C@](C)(O)[C@@H](CC)OC(=O)[C@@H]2C)C[C@@]1(C)OC [Example B-6] | 24 | 16 |  | 
CC[C@H]1OC(=O)[C@H](C)[C@@H](O[C@H]2C[C@@](C)(OC)[C@](O)(CN3CCCCC3)[C@H](C)O2)[C@H](C)[C@@H](O[C@@H]2O[C@H](C)C[C@H](N(Cc3cccnc3)S(=O)(=O)Nc3ccc(C(F)(F)F)cc3)[C@H]2O)[C@](C)(O)C[C@@H](C)CN[C@H](C)[C@@H](O)[C@]1(C)O [Example C-39] | 15 | 6 |  | 
CCCNC[C@]1(O)[C@H](C)O[C@@H](O[C@H]2[C@H](C)[C@@H](O[C@@H]3O[C@H](C)C[C@H](N(C)S(=O)(=O)CC4CC4)[C@H]3O)[C@](C)(O)C[C@@H](C)CN[C@H](C)[C@@H](O)[C@](C)(O)[C@@H](CC)OC(=O)[C@@H]2C)C[C@@]1(C)OC [Example B-10] | 33 | 15 |  | 
CCCNC[C@]1(O)[C@H](C)O[C@@H](O[C@H]2[C@H](C)[C@@H](O[C@@H]3O[C@H](C)C[C@H](N(C)S(=O)(=O)N(C)c4ccc(C#N)cc4)[C@H]3O)[C@](C)(O)C[C@@H](C)CN[C@H](C)[C@@H](O)[C@](C)(O)[C@@H](CC)OC(=O)[C@@H]2C)C[C@@]1(C)OC [Example B-62] |  | 3 |  | 
